# Earlier results, collected in patent US7767208B2, “Noninvasive vascular therapy” (Light Sciences Oncology, Inc., priority 1999, dated 2010).
# Settings: systemically administered sensitizer in clinical use; for sensitize the skin for: duration of skin sensitization
Compound,photosensitivity lasting (skin photosensitivity),sensitize the skin for
sodium porfimer [Photophrin],up to 6 weeks,–
Oc1cccc(-c2c3nc(c(-c4cccc(O)c4)c4ccc([nH]4)c(-c4cccc(O)c4)c4nc(c(-c5cccc(O)c5)c5ccc2[nH]5)CC4)C=C3)c1 [Foscan],–,several weeks
CCOC(=O)C1=Cc2c3nc(cc4nc(cc5[n-]c(cc6[n-]c2c(C)c6CC)c(C)c5CC)C(C)=C4CC)[C@@H](C)[C@]13CC.[Cl-].[Cl-].[Sn] (racemic) [Purlytin],–,several weeks
